This passage reports Ki, EC50 and Kd results from publication PMC10825075, “Proteomic analysis of horse hair extracts provides no evidence for the existence of a hypoallergenic Curly Horse breed” (Clinical and Translational Allergy, 2024).

For assay [1], the target named is T1, Equ c 1.0102 (Equus caballus, UniProt A0A3Q2HX90).
T1 construct: mature protein, residues 16-187 (signal peptide removed), C-terminal His6 tag, codon-optimized synthetic cDNA in pET-21d(+), E. coli Rosetta-gami 2(DE3), purified by HisTrap
T1 sequence (A0A3Q2HX90 16-187): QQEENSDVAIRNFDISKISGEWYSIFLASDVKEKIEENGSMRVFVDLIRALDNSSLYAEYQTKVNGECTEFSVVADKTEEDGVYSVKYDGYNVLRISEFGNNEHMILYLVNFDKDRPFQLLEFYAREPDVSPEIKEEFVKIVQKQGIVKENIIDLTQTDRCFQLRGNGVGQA
The assay can be described thus: competitive displacement of fluorescent probe 1-NPN, 12-point titration, one-site fit. The assay is classed as binding.

Assay [2] deals with T1, Equ c 1.0102. The assay can be described thus: fluorescent probe binding (excitation […] nm, emission […] nm).
The target of assay [3] is T1, Equ c 1.0102. Described as above. As to conditions: read-out: dissociation constant.

Molecules are shown by their SMILES.

In assay [1], `CC(C)CCCC(C)CCO` (stereo not shown) [3,7-dimethyl-1-octanol] displayed a Ki of 0.6 µM.
In the case of `c1ccc(Nc2cccc3ccccc23)cc1` [1-NPN], the EC50 in assay [2] turned out to be 5 µM. Further, the Kd in assay [3] is 6.4 µM.
As for `CCCCCCCCCCO` [1-decanol], the affinity in assay [1] corresponds to a Ki of 1.1 µM.

The Ki is the equilibrium dissociation constant of an inhibitor or competing ligand from its target. Lower therefore signals higher affinity. By EC50 is commonly meant the concentration at which the effect is half-maximal.
